# “And” between values parts separate entries of the source, which are not always exact repeats. Equal entries are not always repeated. Where two headings read alike, the source gives them in different places.
# Columns and labels:
# [1] = format: physicochemical
# [2] = physchem
compound,measurement,setting,value
"O=[N+]([O-])c1ccccc1O [2NP, 2-nitrophenol]",effective mobility,[1]; pH 6.4,12.2(±0.3)·10^−9 m^2/Vs and 13.4(±0.3)·10^−9 m^2/Vs
same,effective mobility,[1]; pH 6.8,15.8(±0.2)·10^−9 m^2/Vs and 16.3(±0.2)·10^−9 m^2/Vs
same,pKa,[2],6.7
